Assay results as given in patent US10278965B2, “Method of detecting cancer stem cell, method of screening cancer stem cell, and method of inhibiting cancer stem cell” (CANON KABUSHIKI KAISHA, priority 2012, dated 2019).

Legend:
[1] = system: Human chronic myelocytic leukemia cells, K562, ALDH (+) fraction (cancer stem cells); experiment: Cancer stem-cell selective inhibitory action against chronic myelocytic leukemia cells, ALDH (+) fraction; type: cell-based; details: 24 hours; for ALDH(+) Superiority evaluation / ALDH(+)/ALDH(−): K562, 10 μg/ml; for ALDH(+) growth rate / Growth suppression evaluated: K562 ALDH(+), 10 μg/ml
Procedure: (§1) Human chronic myelocytic leukemia cells, K562, were pre-cultured in RPMI1640 medium containing 10% FBS at 37° C. in a 5% CO2 ambient. Then, a fraction containing 80% or more of cancer stem cells was extracted by use of a cancer stem cell marker, ALDEFLUOR reagent (manufactured by VERITAS Corporation) and FACSAria flow cytometry (manufactured by Nippon Becton, Dickinson and Company). […] The cultured cells were analyzed for viable cell count according to CellTiter-Glo Luminescent Cell Viability Assay (manufactured by Promega KK.). […] Note that hereinafter, an ALDEFLUOR reagent positive fraction (deemed as cancer stem cells) is represented by ALDH (+), whereas an ALDEFLUOR reagent negative fraction (not deemed as cancer stem cells) is represented by ALDH (−), in some cases.
(§2) Further, the growth suppressive effect of cancer stem cells was evaluated based on the following criteria. Note that the growth rate in Examples is a value obtained by dividing viable cell count after culture by the number of cells at the initiation time of culture.

[2] = system: Human chronic myelocytic leukemia cells, K562, ALDH (−) fraction (general cancer cells); experiment: Cancer stem-cell selective inhibitory action against chronic myelocytic leukemia cells, ALDH (−) fraction; type: cell-based; details: K562 ALDH(−), 10 μg/ml, 24 hours
Procedure: as §1, §2

[3] = Measurement of fluorescent property of compound; type: physicochemical; details: 5 μM DMSO solution
Procedure: The excitation wavelength and fluorescence wavelength of the compound were measured by a FL4500 spectrofluorometric measuring machine manufactured by Hitachi High-Technologies Corporation.

[4] = system: Human pancreas cancer cells, KLM-1; experiment: Cancer cell inhibitory (growth suppressive) action against pancreatic cancer cells, CellTiter-Glo viable cell count; details: KLM-1, 10 μg/mL, 24 hours

SMILES | ALDH(+) Superiority evaluation [1] | ALDH(+)/ALDH(−) [1] | ALDH(+) growth rate [1] | Growth suppression evaluated [1] | ALDH(−) growth rate [2] | Excitation wavelength λex [3] | Fluorescence wavelength λem [3] | Cancer cell growth rate (%) [4] | Evaluation (cancer cell growth rate) [4]
CCN1/C(=C\C=C\c2oc3ccccc3[n+]2CC)Oc2ccccc21 [Compound 14] | A (The value of the growth rate of ALDH (+)/the growth rate of ALDH (−) is less than 0.8) | 0.77 | 0.38 | A (The growth rate of ALDH (+) is less than 0.5) | 0.49 | 491 nm | 510 nm | – | –
CCN1/C(=C\C=C\C2=[N+](CC)c3ccccc3C2(C)C)C(C)(C)c2ccccc21.[I-] [Compound 22] | A (The value of the growth rate of ALDH (+)/the growth rate of ALDH (−) is less than 0.8) | 0.75 | 0.22 | A (The growth rate of ALDH (+) is less than 0.5) | 0.29 | 553 nm | 570 nm | – | –
CCN1/C(=C/C=C/C=C/C=C/c2oc3ccccc3[n+]2CC)Oc2ccccc21 [Compound 33] | B (The value of the growth rate of ALDH (+)/the growth rate of ALDH (−) is 0.8 or more and less than 0.95) | 0.84 | 0.83 | B (The growth rate of ALDH (+) is 0.5 or more and less than 0.95) | 1.00 | – | – | – | –
CCN1C=C/C(=C/C=C/c2sc3ccccc3[n+]2CC)c2ccccc21.[I-] [Compound 34] | A (The value of the growth rate of ALDH (+)/the growth rate of ALDH (−) is less than 0.8) | 0.72 | 0.48 | A (The growth rate of ALDH (+) is less than 0.5) | 0.67 | 638 nm | 661 nm | 26.6% | B (Cancer cell growth rate is 20% or more and less than 50%)
CCN1/C(=C/C=C2\CCCC(/C=C/C3=[N+](CC)c4ccc(OC)cc4C34CCCCC4)=C2Oc2ccc(C(c3ccccc3)c3ccccc3)cc2)C2(CCCCC2)c2cc(OC)ccc21 [Compound 58] | B (The value of the growth rate of ALDH (+)/the growth rate of ALDH (−) is 0.8 or more and less than 0.95) | 0.82 | 0.70 | B (The growth rate of ALDH (+) is 0.5 or more and less than 0.95) | 0.85 | – | – | – | –
